The values that follow come from PubChem BioAssay AID449750 (Broad Institute, 2010).

The term AC50 denotes the midpoint of the concentration-response curve, whichever way the signal moves.

Activity calls are given as the source filed them. The rule behind the calls is not given here.

The assay is described as follows: non-covalent RecA intein splicing inhibitors, dose response, biochemical, cell-free, fluorescence, secondary screen (AID 449750).

Regarding `Cc1ccc(S(=O)(=O)/N=C2\C=C(Nc3cccc(C(=O)O)c3)C(=O)c3ccccc32)c(C)c1`, the AC50 was > 38 µM (inactive).

Take `CCCOC(=O)c1ccc(OC(=O)c2ccco2)cc1`: the AC50 was > 38 µM (inactive).

In the case of `O=[N+]([O-])C(/C=C(/Cl)[N+](=O)[O-])=C(N1CCCCC1)N1CCCCC1`, the AC50 is > 38 µM (inactive).

With `Cc1cccc(Nc2nc(NCc3ccco3)c3ccccc3n2)c1`, the AC50 is 8.01 µM.

With `N=C(N)SCc1cn(-c2ccccc2)nc1-c1ccc(Br)cc1`, the AC50 is 16.2 µM.

On to `CCOCC(=O)NCc1ccc2c(c1)cc(C)n2C`, for which the AC50 was > 38 µM (inactive).

As to `COc1ccc(CC(=O)N/N=C(/C)CC(=O)N(C)c2ccccc2)cc1`, the AC50 is > 38 µM (inactive).

On to `CCOc1ccccc1Nc1nnc(Cc2ccccc2Cl)c(=O)[nH]1`, for which the AC50 was > 38 µM (inactive).

Regarding `CC1CC(=O)c2c(cc3c(-c4c(O)cc(O)c5c(O)c6c(cc45)OC(C)CC6=O)c(O)cc(O)c3c2O)O1` (stereo not drawn), the AC50 is 2.71 µM.

Turning to `CCSC1(SCC)N=C(N)C2(C#N)C(c3ccc(F)cc3)C12C#N` (stereo not drawn), the AC50 was 38.3 µM.

In the case of `CCOc1ccc(C2C(C#N)=C(N)Oc3n[nH]c(C)c32)cc1OC(=O)C1CC1` (stereo not drawn), the AC50 was > 38 µM (inactive).

As for `CCOC1=C/C(=C/c2c(N)n3oc(C)cc3nc2=O)C=CC1=O`, the AC50 was > 38 µM (inactive).

As to `COc1ccc(C2CC(c3cccs3)=NN2C(=O)CCl)cc1OC` (stereo not drawn), the half-maximal activity concentration (AC50) was 3.39 µM.

As to `CC(=O)NC(=S)c1c(N)n(Cc2ccccc2)c(=O)n(C)c1=O`, the AC50 was > 38 µM (inactive).

Turning to `Cc1c(Cl)cccc1NC(=O)CSCc1cc(=O)[nH][nH]1`, the AC50 is 33.3 µM.

As for `O=C(N/N=C/c1ccc(-c2ccccc2[N+](=O)[O-])o1)[C@H]1C[C@@H]1c1ccccc1`, the AC50 was 9.01 µM.

`CCOC(=O)c1nnc(-c2ccccc2)nc1Sc1c(Cl)cccc1Cl`: the AC50 is > 38 µM (inactive).

Regarding `CCCCCCCCCC[N+](C)(C)CC/C=C1/c2ccccc2Sc2ccc(Cl)cc21`, the AC50 was 5.09 µM.

With `c1ccc2[nH]c3cc4ncnc4cc3nc2c1`, the concentration at half-maximal activity (AC50) was 37.5 µM.

For `CCCc1[nH]nc2c1C(c1cccc(OC)c1)C(C#N)=C(N)O2` (stereo not drawn), the AC50 was > 38 µM (inactive).

On to `COc1ccc(-c2cc(CNC(=O)CCl)on2)cc1`, for which the AC50 was 16.1 µM.

Take `O=C1C(Cl)=C(N2CCOCC2)C(=O)N1c1ccccc1F`: the AC50 was > 38 µM (inactive).

For `CC1OC(Nc2cccc3ccccc23)C(O)C(O)C1O` (stereo not drawn), the AC50 was > 38 µM (inactive).

In the case of `CCOC(=O)c1c(CSC(=N)N)n(-c2ccc(C)cc2)c2cc(Br)c(OC(C)=O)cc12`, the AC50 is 8.36 µM.

For `COc1ccc2ccc3c(c2c1)N=CC1(O3)N(C)c2ccccc2C1(C)C` (stereo not drawn), the AC50 is 4.49 µM.

`CCOc1ccc(-n2c(C)cc(C(=O)CCl)c2C)cc1`: the AC50 was 9.25 µM.

With `CC1CCCCC1NC(=O)NC(=O)CCl` (stereo not drawn), the AC50 is 39.8 µM.

For the compound `CCN(CC)CCOc1ccc(/C(=C(\Cl)c2ccccc2)c2ccccc2)cc1`, the AC50 is 9.57 µM.

As for `Cc1cc(C)n2nc(CNS(=O)(=O)c3c(F)c(F)c(F)c(F)c3F)nc2n1`, the AC50 is > 38 µM (inactive).

For the compound `CCOC(=O)CC1=NN(c2ccccc2)C(=O)/C1=C\c1ccc(OC)cc1OC`, the AC50 is 2.34 µM.

Take `CCOc1cc(C(c2c(C)[nH][nH]c2=O)c2c(C)[nH][nH]c2=O)cc([N+](=O)[O-])c1O`: the AC50 was 13.1 µM.

Consider `O=C(CSc1nnc(-c2ccccc2Cl)o1)Oc1ccc(Br)cc1`, for which the AC50 is > 38 µM (inactive).

As for `Cc1[nH]n(-c2ccccc2)c(=O)c1C(c1ccc([N+](=O)[O-])cc1)c1c(C)[nH]n(-c2ccccc2)c1=O`, the AC50 is 3.88 µM.

As for `O=C(c1cccs1)[C@@H]1[C@@H]2C(=O)N(Cc3ccc4c(c3)OCO4)C(=O)[C@@H]2C2c3ccccc3C=CN21` (stereo partly drawn), the AC50 was 3.81 µM.

As to `CCCCCOP(=O)(OCCCCC)C1(NS(=O)(=O)c2ccccc2)C=CC(=O)c2ccccc21` (stereo not drawn), the AC50 was 6.5 µM.

Take `COCc1[nH]nc2c1C1(CCSCC1)C(C#N)=C(N)O2`: the AC50 was > 38 µM (inactive).

For the compound `N#C/C(=C\c1cccc(O)c1)c1nc2ccccc2o1`, the AC50 is > 38 µM (inactive).

As to `CCC(=O)N/N=C(\C)CC(=O)Nc1cccc([N+](=O)[O-])c1`, the AC50 was > 38 µM (inactive).

As for `CCCCCCCCCCOC(=O)Cn1c(COc2cccc(C)c2)[n+](C)c2ccccc21`, the concentration at half-maximal activity (AC50) was 7.35 µM.

As to `Cc1cc(C)cc(Cn2ncc(Cl)c(Cl)c2=O)c1`, the AC50 is 1.38 µM.

As to `CCCCCCCCCCC[N+](C)(C)CC/C=C1/c2ccccc2Sc2ccc(Cl)cc21`, the AC50 is 4.77 µM.

With `CC(C)(C)c1csc(Sc2ccc([N+](=O)[O-])cn2)n1`, the AC50 is 14.2 µM.

Turning to `COc1ccc(C(=O)/C(=C/c2cccs2)c2nc3ccccc3o2)cc1`, the AC50 is > 38 µM (inactive).

With `O=C(O)C1Nc2c(O)cc(Cl)c([N+](=O)[O-])c2C2C=CCC12` (stereo not drawn), the AC50 was 10.9 µM.

On to `Cc1ccc(NC2=C(NCCO)C(=O)c3ccccc3C2=O)cc1`, for which the AC50 was 20.3 µM.

`Cc1cc(C)c(S(C)(=O)=O)c(Oc2cccc(C(F)(F)F)c2)n1`: the AC50 is > 38 µM (inactive).

In the case of `COc1cccc(-c2cc(=O)[nH][nH]2)c1`, the AC50 was 13.9 µM.

Turning to `COC(=O)c1cc(C)nc2c1C(=O)C(=O)C=C2N1CCOCC1`, the concentration at half-maximal activity (AC50) is 1.16 µM.

Take `CCc1[nH]nc2c1C(c1cccc(OC(=O)N3CCOCC3)c1)C(C#N)=C(N)O2` (stereo not drawn): the AC50 is > 38 µM (inactive).

Consider `O=C1COc2ccc(C(=O)CCl)cc2N1`, for which the AC50 is > 38 µM (inactive).

With `CC(=O)NC1C(=O)N(CCN2CCOCC2)c2ccc(Br)cc21` (stereo not drawn), the AC50 is 18.1 µM.

Consider `CC(C)N(c1ccccc1)c1ccc(NC(=O)CCl)cc1`, for which the AC50 is 1.45 µM.

On to `Cc1ccc(S(=O)(=O)N(C(=O)c2ccncc2)c2ccc(OC(=O)c3ccncc3)c3ccccc23)c(C)c1`, for which the half-maximal activity concentration (AC50) is 16.9 µM.

In the case of `O=C(/C=C/c1cccs1)Nc1scc(-c2ccccc2)c1C(=O)O`, the AC50 was 23.7 µM.

In the case of `O=C1CCN(N=Nc2cccc(Cl)c2)N1`, the AC50 was > 38 µM (inactive).

For `COC(=O)c1ccc(C(c2c(C)[nH][nH]c2=O)c2c(C)[nH][nH]c2=O)cc1`, the AC50 is > 38 µM (inactive).

As to `COc1ccc(N/C=C2\CCc3ccccc3C2=O)cc1`, the AC50 is > 38 µM (inactive).

On to `CN1C=C/C(=C\c2cc[n+](C)c3ccccc23)c2ccccc21`, for which the concentration at half-maximal activity (AC50) is 29.3 µM.

For the compound `O=C(/C=C/c1ccco1)c1ccc(NC(=O)C23CC4CC(CC(C4)C2)C3)cc1`, the AC50 was 12.9 µM.

As to `CC1=NN(c2ccccc2)C(=O)/C1=C/c1c(O)[nH]c(=O)[nH]c1=O`, the AC50 is > 38 µM (inactive).

As to `COc1ccc(CC2=CC(=O)c3ccccc3C2=O)cc1`, the AC50 is 6.95 µM.

On to `CS(=O)(=O)c1nc(-c2ccco2)cc(C(F)(F)F)n1`, for which the AC50 was > 38 µM (inactive).

For the compound `Cc1[nH]nc2c1C(c1ccco1)C(C#N)=C(N)O2` (stereo not drawn), the AC50 was > 38 µM (inactive).

`CCOC(=O)C1=C(C)NC(SCc2cc(=O)[nH][nH]2)=C(C#N)C1c1cccs1` (stereo not drawn): the concentration at half-maximal activity (AC50) is 4.69 µM.

For the compound `CC(=O)Oc1ccc2c(=O)oc(-c3ccccc3C)nc2c1`, the AC50 is > 38 µM (inactive).

Take `N#Cc1c(-c2ccccc2)nc(SCC(=O)N2c3ccccc3Sc3ccccc32)[nH]c1=O`: the AC50 is 8.24 µM.

As for `Oc1ccc(/C=N/Nc2ccc(C(F)(F)F)cn2)c(O)c1`, the AC50 was > 38 µM (inactive).

On to `Cn1c(=O)c([N+](=O)[O-])c(Cl)c2ccccc21`, for which the AC50 is > 38 µM (inactive).

Take `Cc1nc2c(=O)n(C)c(=O)n(C)c2nc1Cl`: the AC50 was > 38 µM (inactive).

In the case of `COC(=O)c1sc(-c2cccs2)cc1NC(=O)/C=C/C(=O)O`, the AC50 is 35.9 µM.

As for `Cc1nc([N+](=O)[O-])c(Sc2nc3ccccc3[nH]2)n1Cc1ccccc1`, the AC50 is > 38 µM (inactive).

For the compound `Cc1ccccc1Nc1cc2ccccc2c(=O)[nH]1`, the AC50 is 1.54 µM.

Turning to `CC1(N2CCOCC2)CC2(O)C(=[N+]1[O-])CCc1nonc12` (stereo not drawn), the AC50 is 36.5 µM.

For `Cn1cnc([N+](=O)[O-])c1Sc1ccc(C(C)(C)C)cc1`, the AC50 is > 38 µM (inactive).

Consider `COc1ccc(CN(CCC(c2ccccc2)c2ccc(OC(C)C)cc2)C(=O)CCl)cc1OC` (stereo not drawn), for which the AC50 was 0.569 µM.

In the case of `CC1=NN(c2ccccc2)C(=O)/C1=C/c1cn(C)c2ccccc12`, the AC50 was > 38 µM (inactive).

For `OCC[n+]1c2ccccc2nc2ccc(N3CCOCC3)cc21`, the AC50 was 26.5 µM.

For `O=c1cc(N=Nc2ccc(Cl)cc2)[nH]c(=O)[nH]1`, the AC50 was > 38 µM (inactive).

On to `O=C(CSc1nnc(Cc2ccccc2)o1)Nc1cccc(F)c1`, for which the AC50 is > 38 µM (inactive).

For `O=C1CS/C(=C\[N+](=O)[O-])N1c1ccc(OC(F)(F)F)cc1`, the AC50 was > 38 µM (inactive).

For `O=C(O)CSc1c2c(nc3cc(C(=O)Nc4cccc(C(F)(F)F)c4)ccc13)CCCC2`, the AC50 is 21.7 µM.

With `Cc1ccc(N2C(=O)C(Cl)=C(NCCO)C2=O)c(C)c1`, the AC50 was > 38 µM (inactive).

`COc1cc(Br)c(C2C(C#N)=C(N)Oc3n[nH]c(-c4cccnc4)c32)cc1OC` (stereo not drawn): the AC50 is 34.5 µM.

Consider `Cc1ccc(OC(=O)c2ccc([N+](=O)[O-])cc2Cl)cn1`, for which the AC50 is > 38 µM (inactive).

For `O=c1c(Cl)c(Cl)cnn1Cc1ccccc1Cl`, the AC50 is 36.8 µM.

Regarding `O=[N+]([O-])c1c(NCCO)cc(Sc2nc3ccccc3s2)c2nonc12`, the AC50 was 32.3 µM.

`Cc1ccc(N2C(=O)C(Cl)=C(N3CCN(C)CC3)C2=O)c(C)c1`: the AC50 was > 38 µM (inactive).

In the case of `COc1ccc(-c2cc(=O)n(CCC#N)[nH]2)cc1`, the concentration at half-maximal activity (AC50) is 3.3 µM.

For `CCOC(=O)Cn1cc(/C=N/NC(=O)CC#N)c2ccccc21`, the AC50 was > 38 µM (inactive).

Consider `Nc1ccc2nc(CCCCc3nc4ccccc4[nH]3)[nH]c2c1`, for which the AC50 is > 38 µM (inactive).

With `CC(C)c1[nH]nc2c1C(c1ccco1)C(C#N)=C(N)O2` (stereo not drawn), the AC50 was > 38 µM (inactive).

Take `Cc1ccc(CNC(=O)CCN2C(=O)[C@@H]3Cc4ccccc4CN3C2=O)cc1`: the AC50 is > 38 µM (inactive).

`COc1cc(C(c2c(C)[nH][nH]c2=O)c2c(C)[nH][nH]c2=O)ccc1OS(=O)(=O)c1ccc(C)cc1`: the AC50 was 8.13 µM.
